Three compounds from patent US20120122913A1, “COMBINATION OF CURCUMINOIDS AND MTOR INHIBITORS FOR THE TREATMENT OF TAUOPATHIES” (Institut National De La Recherche Scientifque, priority 2009, published 2012) can be followed below.

In data set [1] the test system is differentiated SH-SY5Y cells. Description: MTT cell viability assay in differentiated SH-SY5Y cells exposed to β-amyloid(1-42). The settings on record: 48 h. A general note: Tetrazolium assays rely on reduction of a dye to a coloured formazan, in cell work by metabolically active cells.
Experimental: For the cytotoxicity assay, 48 well-plates were seeded with 180,000 cells and 500 μl of culture medium was added. Five Petri dishes (or 6-well plates) were prepared for each treatment. […] On day 7, the culture medium was removed and changed with a medium free of retinoic acid and FBS, but containing 2 nM of BDNF (Sigma Cat. No. B3795), from a 2 μM master solution in filtered sterile water). Chemical treatments were initiated and kept for 48 h. […] The Human Beta Amyloid (Aβ(1-42), Chemicon Cat. No. AG972) solution was prepared according to the manufacturer's instructions. […] The solution was subsequently diluted in serum-deprived culture medium containing BDNF (2 nM final concentration) to obtain either a 5 nM or 5 μM Aβ(1-42) final concentration.
In parallel, on day 9, plates were used for the MTT cell viability assay. A volume of 62.5 μl of a 3-(4,5-Dimethylthiazol-2-yl)-2,5-diphenyltetrazolium bromide (MTT) solution (5 mg/ml in a 1:1 PBS/culture medium) was added, then plates were incubated for 4 h. A volume of 312.5 μl of isopropanol—0.1N HCl was added, then for each well the content was mixed using a pipette (wide bore tip) to solubilize the product. The optical density at 560 nm, which is proportional to the number of living cells, was measured (reference at 690 nm).
A further data set concerns Tau protein. The data set is described as follows: Total Tau protein level by Western blot in differentiated SH-SY5Y cells exposed to β-amyloid(1-42). In kind it is cell-based, human. Particulars: 48 h. As to the method: Chemical treatments were initiated and kept for 48 h.
On day 8, cells were observed under an inverted microscope to ensure that they are fully adherent and free of microbial contamination. On day 9, Petri dishes were used for Western Blot analyses. […] Cells were then removed with a cell scraper, transferred to a 0.6 ml microtube and kept on ice. Samples were sonicated for 30 seconds and mixed with a vortex for 5 seconds and the procedure was repeated once. Samples obtained were stored at −80 ° C. in aliquots of 20 μl. For SDS-PAGE analysis, samples (20 μl) were mixed with 7.34 μl of 4× SDS gel loading buffer (200 mM Tris-HCl, pH 6.8, 8% SDS, 20% Glycerol, 0.4% bromophenol blue and 400 mM β-mercaptoethanol) and 2 μl of cell lysing buffer, boiled for 10 min, cooled on ice, spun on a microcentrifuge and transferred to wells of an electrophoresis apparatus containing a 4% acrylamide stacking gel and a 8% acrylamide resolving gel. Electrophoresis protein separation was performed overnight using a constant current (40 V). Proteins were transferred to nitrocellulose by electro-blotting in a 20% methanol-transfer buffer with a constant 900 mA current for 90 min. Ponceau Red staining was performed to evaluate the quality of loading and transfer. […] The membrane was then washed 4 times for 5 min each time with TBS-0.1% Tween™, and soaked with the chemiluminescence substrate (Enhanced Luminol™ from PerkinElmer). X-Ray films were exposed to the membranes long enough to optimize each band detection. Band Intensity was quantified using a Fluor-S Multimager™ (Bio-Rad scanner) and the Quantity One™ software (Bio-Rad) and data adjusted with local background.
For orientation: In western blotting, separated proteins are transferred to a membrane and probed.

Turning to `CO[C@H]1C[C@@H]2CC[C@@H](C)[C@@](O)(O2)C(=O)C(=O)N2CCCC[C@H]2C(=O)O[C@H]([C@H](C)C[C@@H]2CC[C@@H](OC(=O)C(C)(CO)CO)[C@H](OC)C2)CC(=O)[C@H](C)/C=C(\C)[C@@H](O)[C@@H](OC)C(=O)[C@H](C)C[C@H](C)/C=C/C=C/C=C/1C` [Temsirolimus], the “cytotoxicity (cell viability, MTT)” value in data set [1] (2 nM Temsirolimus, 5 nM β-amyloid(1-42), FIG. 6) was “none of these three treatments were cytotoxic”. The “reduction in the total amount of Tau protein as compared to controls” value (from here on “reduction in the total amount”) with Tau protein (2 nM Temsirolimus, 5 nM human β-amyloid(1-42), FIG. 5) is reported as 5.3%.
Regarding `COc1cc(/C=C/C(=O)CC(=O)/C=C/c2ccc(O)c(OC)c2)ccc1O` [curcumin, (E,E)-1,7-bis(4-Hydroxy-3-methoxyphenyl)-1,6-heptadiene-3,5-dione], the “cytotoxicity (cell viability, MTT)” value in data set [1] (10 μM curcumin, 5 μM β-amyloid(1-42), FIG. 4) was “none of these three treatments were cytotoxic”; in data set [1] (15 μM curcumin, 5 nM β-amyloid(1-42), FIG. 6), “none of these three treatments were cytotoxic”; in data set [1] (20 μM curcumin, 5 nM β-amyloid(1-42), FIG. 2), “none of these three treatments were cytotoxic”. For the same compound, the “reduction in the total amount” value was determined as 0.5% in the data set on Tau protein (10 μM curcumin, 5 μM human β-amyloid(1-42), FIG. 3); 6.7% in the data set with Tau protein (15 μM curcumin, 5 nM human β-amyloid(1-42), FIG. 5); 2.1% in the data set on Tau protein (20 μM curcumin, 5 nM human β-amyloid(1-42), FIG. 1).
For `CO[C@H]1C[C@@H]2CC[C@@H](C)[C@@](O)(O2)C(=O)C(=O)N2CCCC[C@H]2C(=O)O[C@H]([C@H](C)C[C@@H]2CC[C@@H](OCCO)[C@H](OC)C2)CC(=O)[C@H](C)/C=C(\C)[C@@H](O)[C@@H](OC)C(=O)[C@H](C)C[C@H](C)/C=C/C=C/C=C/1C` [Everolimus], the “cytotoxicity (cell viability, MTT)” value in data set [1] (1 nM Everolimus, 5 μM β-amyloid(1-42), FIG. 4) is given as “none of these three treatments were cytotoxic”; in data set [1] (2 nM Everolimus, 5 nM β-amyloid(1-42), FIG. 2), “none of these three treatments were cytotoxic”. Also, the “reduction in the total amount” value amounted to 17.2% in the data set with Tau protein (1 nM Everolimus, 5 μM human β-amyloid(1-42), FIG. 3) and 18.7% in the data set with Tau protein (2 nM Everolimus, 5 nM human β-amyloid(1-42), FIG. 1).
